PMC4503694, “The Human Autoantibody Response to Apolipoprotein A-I Is Focused on the C-Terminal Helix: A New Rationale for Diagnosis and Treatment of Cardiovascular Disease?” (PLoS ONE, 2015)

Legend:
[1] = system: anti-ApoA-I autoantibodies in pooled patient plasma; assay: Capture ELISA: immunoreactivity of pooled anti-ApoA-I-positive patient plasma to coated peptides; type: binding, human; details: pooled plasma of anti-ApoA-I-positive patients; peptide as coating antigen; mean ± SD, n = 3 (Fig 1a)
Protocol: Anti-ApoA-I IgG autoantibodies in plasma were measured as described previously. Briefly, Maxisorp plates (Nunc) were coated with purified and delipidated human ApoA-I, diluted in carbonate buffer pH 9.7 (20 μg/ml; 50 μl/well), for 1 h at 37°C. The same procedure was used for the engineered peptides. After three washes with PBS/ 2% (w/v) BSA (100 μl/well), all wells were blocked for 1 h with PBS/ 2% (w/v) BSA at 37°C. Samples were diluted 1:50 in PBS/ 2% (w/v) BSA and incubated for 60 min at 37°C. Samples at the same dilution were also added to a non-coated well to assess individual non-specific binding. After six further washes, 50 μl/well of alkaline-phosphatase conjugated anti-(human IgG) (Sigma-Aldrich), diluted 1:1000 in PBS/ 2% (w/v) BSA, was incubated for 1 h at 37°C. After six more washes (150 μl/well) with PBS/ 2% (w/v) BSA, the phosphatase substrate p-nitrophenyl phosphate (50μl/well; 1mg/ml; Sigma—Aldrich) dissolved in 4.8% (w/v) diethanolamine (pH 9.8) was added. Each sample was tested in duplicate and A 405nm was determined after 20 min of incubation at 37°C (VERSAMax; MolecularDevices). The corresponding non-specific binding was subtracted from the mean absorbance for each sample. As in previous studies, positive immunoreactivity of human samples to ApoA-I was prospectively defined by an index >37%. This value was also used to define positive immunoreactivity to mimetic peptides, as defined upon receiver operating characteristic (ROC) curve analyses, and shown to provide an identical prevalence of positive immunoreactivity levels 11% […] to native ApoA-1 and 11% (14/132) to F3L1 peptide (data not shown). Repeatability and reproducibility were determined at two levels. At a high level (A 405nm = 1.2, i.e. twice the cut-off value), the intra- and inter-assay coefficients of variation were 10% (n = 10) and 17% (n = 10) respectively. At the cut-off level, the intra- and inter-assay coefficients of variation were 16% (n = 10) and 12% (n = 8) respectively.
In order to characterize the anti-ApoA-I autoantibody response, we chemically synthesized a panel of peptides corresponding to the different alpha-helical regions in the protein (Table 1). Each of the two longest helical regions, C and D, were synthesized as two separate peptides (C1, C2, D1, D2) whose sequences are located on either side of centrally located proline residues (Pro^121 for Region C, Pro^165 for Region D (Table 1)). The synthetic peptides were then used as coating antigens in a capture ELISA experiment to compare their immunoreactivity against pooled plasma from a subset of patients from our acute chest pain cohort that had previously shown to be positive for anti-ApoA-I autoantibodies (Fig 1a).
(§1) Fig 1 The anti-ApoA-I autoantibody response is strongly biased towards the C-terminal alpha-helical region. ELISA experiments were carried out using a set of ApoA-I-derived peptides (Table 1). a. Capture ELISA assay to determine the immunoreactivity of plasma pooled from patients known to be positive for anti-ApoA-I autoantibodies against the set of peptides. Specific ELISA signals were calculated as [signal in well]-[mean background signal (uncoated well)]. Results are expressed as mean ± SD (n = 3) b and c. Competition ELISA to determine the capacity of the set of peptides to block binding of anti-ApoA-I antibodies from either pooled patient plasma (b) or goat polyclonal IgG (c) to immobilized ApoA-I. Plasma or antibody was preincubated (2 h, room temperature) with peptides at the indicated concentrations prior to addition to assay wells. Percent maximal ELISA signals were calculated as 100 × ([signal in well]-[mean background signal (uncoated well)])/([mean maximal signal (no peptide)]-[mean background signal]). Results are expressed as mean ± SD (n = 3).

[2] = system: goat polyclonal anti-ApoA-I IgG; assay: Competition ELISA: peptides block binding of goat polyclonal IgG to immobilized ApoA-I; details: goat polyclonal anti-ApoA-I IgG preincubated with peptide; wells coated with ApoA-I (Fig 1c)
Protocol: as §1, with “3). […] In contrast, when pre-incubated with goat polyclonal anti-ApoA-I IgG, none of the peptides, including Peptide F, decreased signal inhibition by 15% at the highest concentration (Fig 1c). […]” for “3).”

[3] = system: anti-ApoA-I antibodies from pooled patient plasma; assay: Competition ELISA: peptides block binding of antibodies from pooled patient plasma to immobilized ApoA-I; set-up: species or system human; details: pooled patient plasma preincubated 2 h at room temperature with peptide; wells coated with intact ApoA-I (Fig 1b)
Protocol: as §1, with “3). […] In contrast, when pre-incubated with goat polyclonal anti-ApoA-I IgG, none of the peptides, including Peptide F, decreased signal inhibition by 15% at the highest concentration (Fig 1c). […]” for “3).”

[4] = system: human monocyte-derived macrophages; assay: Anti-ApoA-I IgG-mediated IL-6 and TNF-α release from human monocyte-derived macrophages; type: cell-based; details: peptide preincubated with anti-ApoA-I IgG 2 h at room temperature; highest concentration 1 mg/mL (Fig 5, 6)
Protocol: Human monocytes were isolated from buffy coats from healthy donors at the Geneva University Hospitals Blood Transfusion Center and differentiated into macrophages by 24 h incubation with IFN-γ (500 U/ml) in complete RPMI-1640 culture medium (10% heat-inactivated FCS, 50 μg/ml streptomycin, 50 U/ml penicillin, 2 mM L-glutamine), as previously described. Assays of anti-ApoA-I IgG-mediated release of IL-6 and TNF-α from human monocyte-derived macrophages was carried out as described previously using a previously determined optimal concentration of polyclonal goat anti-ApoA-I IgG (40 μg/ml). Endotoxin contamination in the assay was excluded using the limulus amebocyte lysate Endochrome assay. Where indicated, anti-ApoA-I IgG was pre-incubated with peptide […] (1 mg/mL) for 2 h at room temperature prior addition to the cells. Each experiment was performed on cells from […] different healthy blood donors. […] We next used a Luminex assay to measure the capacity of peptide […] to inhibit endotoxin-free anti-ApoA-I IgG-mediated proinflammatory cytokine release in human monocyte-derived macrophages (Fig 5a and 5b). As expected from previously published work, anti-ApoA-I IgG elicited a significant increase in production of both in IL-6 and TNF-α when compared to control IgG (Ctl IgG; p<0.0001 for both cytokines). […] We were unable to measure the inhibitory activity of intact purified and delipidated ApoA-I in this assay because traces of endotoxin elicit significant levels of background cytokine secretion (NV and SP, unpublished observations).  Fig 5 Peptide […] inhibits anti-ApoA-I IgG-mediated release of proinflammatory cytokines from cultured human monocyte-derived macrophages. Release of proinflammatory cytokines TNF-α (a) IL-6 (b) from human monocyte-derived macrophages induced by endotoxin-free goat polyclonal anti-ApoA-I IgG was determined with or without preincubation (2 h at room temperature) of the anti-ApoA-I IgG with peptide […] (1 mg/mL) and the corresponding scrambled peptide (Scr Pept). […] Anti-ApoA-I IgG was incubated with the indicated […] concentrations (preincubation 2 h at room temperature) prior to addition to cultured human monocyte-derived macrophages. Levels of proinflammatory cytokines were determined after 24 h culture. Experiments were repeated using cells from three different healthy donors, with results expressed as median, interquartile range (IQR) and range.

[5] = system: anti-ApoA-I antibodies in plasma samples from three different patients; assay: Competition ELISA with plasma of three individual anti-ApoA-I-positive patients; type: binding, human; details: preincubated 2 h at room temperature with peptide, n = 3 (Fig 3)
Protocol: We next performed ELISA assays using plasma samples from three different anti-ApoA-I autoantibody-positive patients from the cohort pre-incubated with Peptide F, a scrambled version of Peptide F (Table 1), or the stapled peptide F3L1 prior to addition to wells coated with ApoA-I (Fig 3).
Plasma samples were preincubated (2 h, room temperature) with peptides at the indicated concentrations prior to addition to assay wells. Percent maximal ELISA signals were calculated as 100 × ([signal in well]-[mean background signal (uncoated well)])/ ([mean maximal signal (no peptide)]-[mean background signal]). Results are expressed as mean ± SD (n = 3).

RAW cells = assay: Anti-ApoA-I IgG-induced TNF-α release in RAW mouse macrophage cell line; type: cell-based; details: anti-ApoA-I IgG 100 μg/ml preincubated 2 h with peptide 100 to 0.06 μg/ml; 24 h stimulation; ELISA; n = 3 (Fig 7)
Protocol: Raw cells were seeded in 96-well plates at 2 × 10^5 cells/well in DMEM culture medium (10% heat-inactivated FCS, 50 μg/ml streptomycin, 50 U/ml penicillin) for 24 h. Anti-Apo-A1 IgG (100 μg/ml) were incubated with peptides across a concentration range from 100 μg/ml to 0.06 μg/ml for 2 h at room temperature prior addition to cells. After 24 h stimulation, mouse TNF-α was quantified in the cell supernatants by ELISA according to manufacturer’s instructions (R&D system, MN).
Fig 7 Comparing the inhibitory potency of Peptide F and F3L1 on anti-ApoA-I IgG-induced TNF-α. Anti-ApoA-I IgG was incubated with the indicated peptide concentrations (preincubation 2 h at room temperature) prior to addition to cultured RAW cells. Levels of proinflammatory cytokines (TNF-α) were determined after 24 h culture. Mean levels (n = 3) are shown with error bars indicating the range.

| Substance | plasma immunoreactivity (specific ELISA signal) to coated peptide [1] | also measured |
| --- | --- | --- |
| A: ApoA-I-derived peptide, residues 10–39 (RVKDLATVYVDVLKDSGRDYVSQFEGSALG; UniProt P02647 34-63, looked up, fragment) | low signals | – |
| B: ApoA-I-derived peptide, residues 50–84 (WDSVTSTFSKLREQLGPVTQEFWDNLEKETEGLRQ; UniProt P02647 74-108, looked up, fragment) | intermediate signals | – |
| C1: ApoA-I-derived peptide, residues 97–120 (VQPYLDDFQKKWQEEMELYRQKVE; UniProt P02647 121-144, looked up, fragment) [Peptide C1] | low signals | – |
| C2: ApoA-I-derived peptide, residues 122–142 (LRAELQEGARQKLHELQEKLS; UniProt P02647 146-166, looked up, fragment) [Peptide C2] | intermediate signals | – |
| E: ApoA-I-derived peptide, residues 190–213 (AEYHAKATEHLSTLSEKAKPALED; UniProt P02647 214-237, looked up, fragment) | low signals | – |
| GLLPVLESFKVSFLSALEEYTKKLNT [Peptide F, ApoA-I-derived peptide, residues 220–242, C-terminal alpha-helix] | strongest signal | decrease of ELISA signal at the highest peptide concentration [2]: < 15%; maximal inhibition plateau of total anti-ApoA-I signal [3]: approximately 50%; peptide concentration above which inhibition of ELISA signal is seen [3]: above 3 μM; inhibition of anti-ApoA-I IgG-induced TNF-α and IL-6 release [4]: comparable to that of F3L1 |
| KELYLLKFTVESKVGSTELPLNFSLA [F (scrambled), scrambled version of Peptide F, control peptide, reference compound] | – | inhibition of binding of anti-ApoA-I IgG to immobilized ApoA-I [5]: No inhibition was detectable; inhibition of anti-ApoA-I IgG-induced TNF-α and IL-6 release [4]: did not inhibit; inhibitory potency on anti-ApoA-I IgG-induced TNF-α (RAW cells): no detectable inhibitory activity |
| LGEEMRDRARAHVDALRTHLAPYSDEL [Peptide D1, ApoA-I-derived peptide, residues 143–164] | low signals | – |
| YSDELRQRLAARLEALKENGGA [Peptide D2, ApoA-I-derived peptide, residues 166–187] | low signals | – |
